In patent US9243272B2, “Enzyme preparation containing thermostable DNA polymerase, method for producing same, and method for detecting subject organism to be detected” (HOKKAIDO MITSUI CHEMICALS INC., priority 2009, dated 2016):

Columns and labels:
[1] = test system: Bacillus cereus; test: Rapid liquid phase drug sensitivity test, enrichment rate by real-time PCR (e-DNAP, non-display method); type: cell-based; conditions: 10 μg/mL; four hours after culture; enrichment rate without antibiotic agent defined as 100%
Description: (§1) In current drug sensitivity tests, it generally takes several days to obtain results. However, when the highly sensitive quantification method in accordance with the present invention is applied, results can be obtained in only four to six hours. […] Accordingly, a sensitive test must be started once culture was carried out, so that it takes at least one day to obtain a result. An equal amount of each sample (for example, blood of septicemia) was infused into a liquid medium (BHI: Brain Heart Infusion), each sample medium was collected before culture, two hours after the culture, and four hours after the culture under the condition in which an antibiotic agent was added or not added, cells were subjected to centrifugation and pelletizing so as to obtain DNA, respectively. Furthermore, it is desirable that extraction of DNA is carried out by using an automatic nucleic acid extraction device. A real-time PCR reagent for detecting bacteria, conditions and the primer constitution were the same as in Example 2. When calculation is carried out when the quantification result before culture is defined as 0 and the quantification result two hours after and four hours after culture in which an antibiotic agent was not added is respectively defined as 100 (an enrichment rate when an antibiotic agent was not added is defined as 100%), the enrichment rate was calculated two hours after and four hours after the culture in which an antibiotic agent was added. For example, the amount of bacteria/fungi before culture is […], the amount of bacteria two hours after culture in which an antibiotic agent is not added is […], and the amount two hours after culture in which an antibiotic agent is added is […], the enrichment rate two hours after an antibiotic agent is added can be calculated by the following formula: Enrichment rate two hours after an antibiotic agent is added=[…])×100 (%) Alternatively, instead of comparing the enrichment rates, the amounts […] be compared directly. […]

[2] = test system: Staphylococcus epidermidis; test: Rapid liquid phase drug sensitivity test, bacteria quantified by real-time PCR (e-DNAP, non-display method); type: cell-based; conditions: 10 μg/mL; two hours and four hours after culture
Description: as §1, with “An equal amount of each sample (for example, blood of septicemia) was infused into a liquid medium (BHI: Brain Heart Infusion), each sample medium was collected before culture, two hours after the culture, and four hours after the culture under the condition in which an antibiotic agent was added or not added, cells were subjected to centrifugation and pelletizing so as to obtain DNA, respectively. Furthermore, it is desirable that extraction of DNA is carried out by using an automatic nucleic acid extraction device. A real-time PCR reagent for detecting bacteria, conditions and the primer constitution were the same as in Example 2.” left out

[3] = test system: bacterial 16S rRNA-derived gene; test: Amplification curve and melting curve analysis by real-time PCR (contamination of non-specific nucleic acid); set-up: species or system Escherichia coli; conditions: real-time PCR 60 cycles; template not added
Description: In order to investigate contamination of non-specific nucleic acid in the above-mentioned thermostable DNA polymerase preparations, analyses of an amplification curve and a melting curve were carried out by using real-time PCR. FIGS. 5(A) and FIG. 5(B) show analysis of amplification curves. FIGS. 6(A) and FIG. 6(B) show analysis of melting curves. Furthermore, FIG. 5(A) and FIG. 6(A) are graphs showing analysis carried out by using thermostable DNA polymerase preparation produced by using AmpliTaq Gold LD as a host. FIG. 5(B) and FIG. 6(B) are graphs showing analysis carried out by using thermostable DNA polymerase preparation produced by using S. cerevisiae as a host. Solid lines show a case in which Escherichia coli was added as a template, and broken lines show a case in which a template was not added. As the real-time PCR reagent, ×10 Buffer was obtained by adding 10 μl of ultrapure water into a 1b tube of LightCycler FastStart DNA Master SYBR GreenI (Roche). In this tube, dNTPs and SYBR GreenI in addition to a buffer reagent optimized for the Taq DNA polymerase are contained. […]

Compound	enrichment rate [1]	drug sensitivity (comparison of amount of bacteria itself) [2]	contamination of non-specific nucleic acid in amplification curve and melting curve [3]
CC1(C)S[C@@H]2[C@H](NC(=O)[C@H](N)c3ccccc3)C(=O)N2[C@H]1C(=O)O [ampicillin]	0%	–	–
Cc1nnc(SCC2=C(C(=O)O)N3C(=O)[C@@H](NC(=O)Cn4cnnn4)[C@H]3SC2)s1 [cefazolin]	16%	–	–
CC[C@H]1OC(=O)[C@H](C)[C@@H](O[C@H]2C[C@@](C)(OC)[C@@H](O)[C@H](C)O2)[C@H](C)[C@@H](O[C@@H]2O[C@H](C)C[C@H](N(C)C)[C@H]2O)[C@](C)(O)C[C@@H](C)C(=O)[C@H](C)[C@@H](O)[C@]1(C)O [erythromycin]	76%	sensitivity to EM was observed	–
AmpliTaq Gold LD: commercial thermostable DNA polymerase preparation (ABI), produced in bacteria and purified to minimize bacterial DNA	–	–	contamination of non-specific nucleic acid was observed
gentamicin	–	sensitivity to GM was not observed	–
